Measurements from article PMC8958511, “Development of Sulfamoylated 4-(1-Phenyl-1H-1,2,3-triazol-4-yl)phenol Derivatives as Potent Steroid Sulfatase Inhibitors for Efficient Treatment of Breast Cancer” (Journal of Medicinal Chemistry, 2022).
Like-named read-outs stand apart in the source and are kept apart here.

How the values were obtained:
[1] = biological target: T1, STS isolated from the human placenta (Homo sapiens, UniProt P08842); assay: radioisotope enzymatic assay with STS isolated from human placenta and [3H]E1S; assay type: biochemical; settings: 0.5 μM inhibitor concentration, substrate [3H]E1S, 3 nM, triplicate; for remaining activity at 0.5 µM: read-out: residual STS activity [%]
T1 construct: radioisotope enzymatic assay using STS isolated from the human placenta; from tissue; host or cells: human placenta
T1 sequence (P08842 22-583): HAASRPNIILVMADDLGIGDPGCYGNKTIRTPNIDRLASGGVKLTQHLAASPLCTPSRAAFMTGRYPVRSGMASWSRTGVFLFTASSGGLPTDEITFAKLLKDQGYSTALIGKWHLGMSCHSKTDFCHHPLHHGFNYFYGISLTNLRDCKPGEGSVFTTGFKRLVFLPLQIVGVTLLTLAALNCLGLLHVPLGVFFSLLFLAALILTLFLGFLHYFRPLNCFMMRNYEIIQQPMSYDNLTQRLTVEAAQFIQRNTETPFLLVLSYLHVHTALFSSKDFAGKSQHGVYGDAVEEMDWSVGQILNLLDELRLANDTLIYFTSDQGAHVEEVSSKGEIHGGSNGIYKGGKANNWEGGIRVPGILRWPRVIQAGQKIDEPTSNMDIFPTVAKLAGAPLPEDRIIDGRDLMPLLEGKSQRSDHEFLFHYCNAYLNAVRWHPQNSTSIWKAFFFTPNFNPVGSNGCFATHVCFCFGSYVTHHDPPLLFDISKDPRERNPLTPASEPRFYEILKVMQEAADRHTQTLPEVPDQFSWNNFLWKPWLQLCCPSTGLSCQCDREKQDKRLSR
Method: The inhibitory potency of the synthesized compounds was examined in two ways, including an enzymatic assay and the radioisotope cellular test. The enzymatic assay was performed using the STS enzyme isolated from human placenta and using radiolabeled [^3H]E1S as a substrate.
The total volume of the reaction mixture was 100 μL. […] After incubation, the reaction mixture (90 μL) was collected from each well, and the product formed by STS hydrolysis was extracted with toluene (0.5 mL). STS activity was measured using a MicroBeta radioluminometer (PerkinElmer). Enzymatic assays were carried out in triplicate.

[2] = biological target: T2, STS in MCF-7 cells (Homo sapiens, UniProt P08842); assay: radioisotope cellular assay with [3H]E1S in MCF-7 cells; assay type: cell-based; settings: for remaining activity at 0.1 µM / remaining activity at 0.001 µM / remaining activity at 0.01 µM: MCF7, 20 h; for remaining activity at 0.1 µM: read-out: residual STS activity [%] 100 nM; for remaining activity at 0.001 µM: read-out: residual STS activity [%] 1 nM; for remaining activity at 0.01 µM: read-out: residual STS activity [%] 10 nM
T2 construct: The radioisotope cellular assay was performed using the MCF-7 cell line; endogenous in cells; host or cells: MCF-7
T2 sequence (P08842 22-583): T1 sequence (P08842 22-583)
Method: All compounds were initially tested for their in cell inhibitory action at a 100 nM concentration.
The inhibitory potency of the synthesized compounds was examined in two ways, including an enzymatic assay and the radioisotope cellular test. […] The radioisotope cellular assay was performed using the MCF-7 cell line in the presence of radiolabeled [^3H]E1S.
The evaluation of the inhibitory effect of each compound with breast cancer cells was performed using a previously described method (27) with some modifications. MCF-7 cells were maintained in Dulbecco’s modified Eagle medium supplemented with 10% fetal bovine serum and cultured in the above medium until 80% confluence. […] After incubation, the medium (0.45 mL) was collected from each well, and the product formed by STS hydrolysis was extracted with toluene (4 mL). STS activity was measured using a MicroBeta radioluminometer (PerkinElmer). Assays with MCF-7 cells were carried out in triplicate.

[3] = blood morphology, blood biochemistry and organ weights of mice with 67NR tumor
Method: At the end of the study, the autopsy of the animals was performed: blood was collected for further analyses of the morphology (Table S2, Supporting Information) and biochemistry (Table S3 and Figure S6, Supporting Information) and for the determination of the plasma estradiol level using the ELISA method.
Mice were injected orthotopically (in the mammary gland fat pad) with 67NR mouse mammary tumor cells derived from in vitro culture (1.5 × 10^5 cells/0.05 mL Hanks fluid/mouse). The growth of tumors has been observed. […] Animals were observed during the next 17 days and euthanized. During observation, body weight and tumor growth were monitored three times a week. The volume of the tumors was calculated according to the following formula: TV = a^2·b/2 [mm^3], (where: a—width and b—length of the tumor). Blood, tumor tissue, and liver were harvested during autopsy for further analyses. Blood aliquots (about 500 μL) were collected in EDTA containing vials for morphology analysis (Mythic 18 analyzer, Orphee), and then, the plasma was collected (centrifuged at 2500g for 15 min at 4 °C within 1 h after collection) for biochemical parameter analysis (Cobas c111, Roche).

[4] = system: 67NR mouse mammary tumor cells; assay: antitumor activity in 67NR orthotopic mouse breast carcinoma model; assay type: in vivo, BALB/c mice; settings: 50 mg/kg b.w. per os
Method: The tumor volume (TV) and body weight were measured three times a week. Results for individual groups are reported in Figure S5, Supporting Information. Based on TV data, the tumor growth inhibition (TGI) was calculated for groups that received compounds and compared to that of the control group. […] The body weight of the treated animals was monitored during the study, and the body weight change (BWC) index was calculated (Figure 4). […] Body weight loss was observed between D2 and D11 and reached 4.5% at most.
The growth of tumors has been observed.

[5] = assay type: in vivo; settings: Table S1, MTD study, 50 mg/kg
Method: The mice were thus weighed, and their general health was observed. […] At the end of the study, the mice were sacrificed by dislocation of the cervical vertebrae, and the internal organs were examined macroscopically.
The mice were weighed, and their general health was observed. […] At the end of the MTD study, the autopsy was performed, and the internal organs (liver, kidney, and spleen) were weighed and macroscopically assessed.

[6] = MCF-7 cells, 100 nM inhibitor, substrate [3H]E1S, 3 nM, triplicate
[7] = MCF-7 cells, 1 nM inhibitor, substrate [3H]E1S, 3 nM, triplicate
[8] = MCF-7 cells, 10 nM inhibitor, substrate [3H]E1S, 3 nM, triplicate
[9] = Table S2, mice with 67NR tumor, 50 mg/kg
[10] = Table S3, plasma, mice with 67NR tumor, 50 mg/kg per os, N=9

Compound: NS(=O)(=O)Oc1ccc(-c2cn(-c3cc(I)cc(I)c3)nn2)cc1 [4m, 4-(1-(3,5-Diiodophenyl)-1H-1,2,3-triazol-4-yl)phenyl Sulfamate]
- residual STS activity [%] [1]: 11.78 ± 0.59%
- remaining activity at 0.5 µM [1]: 11.8%
- remaining activity at 0.1 µM [2, 6]: 18.7%
- melting point: 213 to 216 °C (dec.)

Compound: NS(=O)(=O)Oc1ccc(-c2cn(-c3cccc(I)c3)nn2)cc1 [4d, 4-(1-(3-Iodophenyl)-1H-1,2,3-triazol-4-yl)phenyl Sulfamate]
- residual STS activity [%] [1]: 13.23 ± 0.66%
- remaining activity at 0.5 µM [1]: 13.2%
- remaining activity at 0.001 µM [2, 7]: 67.5 ± 3.71%
- remaining activity at 0.01 µM [2, 8]: 31.8 ± 1.59%
- remaining activity at 0.1 µM [2, 6]: 2 ± 0.11%
- melting point: 228 to 229 °C (dec.)

Compound: Cc1cc(=O)oc2cc(OS(N)(=O)=O)ccc12 [COUMATE, reference compound]
- remaining activity at 0.1 µM [2]: 51.8%

Compound: NS(=O)(=O)Oc1ccc(-c2cn(-c3ccccc3OC(F)(F)F)nn2)cc1 [5k]
- remaining activity at 0.1 µM [2, 6]: 15.5 ± 0.93%

Compound: NS(=O)(=O)Oc1ccc(-c2cn(-c3ccccc3)nn2)cc1 [5b]
- remaining activity at 0.01 µM [2, 8]: 46.6 ± 1.63%
- remaining activity at 0.1 µM [2, 6]: 1.5 ± 0.05%

Compound: NS(=O)(=O)Oc1ccc(-c2cn(-c3ccc(C(F)(F)F)cc3)nn2)cc1 [5j]
- remaining activity at 0.1 µM [2, 6]: < 5%

Compound: NS(=O)(=O)Oc1ccc(-c2cn(-c3ccccc3C(F)(F)F)nn2)cc1 [5c]
- remaining activity at 0.1 µM [2, 6]: 5.5 ± 0.3%

Compound: CCc1cccc(-n2cc(-c3ccc(OS(N)(=O)=O)cc3)nn2)c1 [4i, 4-(1-(3-Ethylphenyl)-1H-1,2,3-triazol-4-yl)phenyl Sulfamate]
- remaining activity at 0.5 µM [1]: 14.5 ± 0.73%
- remaining activity at 0.1 µM [2, 6]: 2.6 ± 0.08%
- melting point: 223 to 225 °C (dec.)

Compound: NS(=O)(=O)Oc1ccc(-c2cn(-c3cc(C(F)(F)F)cc(C(F)(F)F)c3)nn2)cc1 [5d]
- remaining activity at 0.1 µM [2, 6]: 14.7 ± 0.88%

Compound: COc1cccc(-n2cc(-c3ccc(OS(N)(=O)=O)cc3)nn2)c1 [4g, 4-(1-(3-Methoxyphenyl)-1H-1,2,3-triazol-4-yl)phenyl Sulfamate]
- remaining activity at 0.5 µM [1]: 43.4 ± 2.17%
- remaining activity at 0.1 µM [2, 6]: 6.8 ± 0.24%
- melting point: 210 to 212 °C (dec.)

Compound: Cc1cccc(-n2cc(-c3ccc(OS(N)(=O)=O)cc3)nn2)c1 [4e, 4-(1-(3-Methylphenyl)-1H-1,2,3-triazol-4-yl)phenyl Sulfamate]
- remaining activity at 0.5 µM [1]: 34.2 ± 1.71%
- remaining activity at 0.1 µM [2, 6]: 3.1 ± 0.12%
- melting point: 212 to 213 °C (dec.)

Compound: NS(=O)(=O)Oc1ccc(-c2cn(-c3ccc(F)cc3C(F)(F)F)nn2)cc1 [5h]
- remaining activity at 0.01 µM [2, 8]: 48.2 ± 3.37%

Compound: NS(=O)(=O)Oc1ccc(-c2cn(-c3cccc(Br)c3)nn2)cc1 [4c, 4-(1-(3-Bromophenyl)-1H-1,2,3-triazol-4-yl)phenyl Sulfamate]
- remaining activity at 0.5 µM [1]: 24.1 ± 1.2%
- remaining activity at 0.001 µM [2, 7]: 79.4 ± 4.76%
- remaining activity at 0.01 µM [2, 8]: 39.9 ± 2.19%
- remaining activity at 0.1 µM [2, 6]: 2.1 ± 0.07%
- melting point: 212 to 213 °C (dec.)

Compound: Cc1cc(C)cc(-n2cc(-c3ccc(OS(N)(=O)=O)cc3)nn2)c1 [4f, 4-(1-(3,5-Dimethylphenyl)-1H-1,2,3-triazol-4-yl)phenyl Sulfamate]
- remaining activity at 0.5 µM [1]: 52.5 ± 2.62%
- remaining activity at 0.1 µM [2, 6]: 10.2 ± 0.61%

Compound: CC(C)c1cccc(-n2cc(-c3ccc(OS(N)(=O)=O)cc3)nn2)c1 [4j, 4-(1-(3-Isopropylphenyl)-1H-1,2,3-triazol-4-yl)phenyl Sulfamate]
- remaining activity at 0.5 µM [1]: 18.1 ± 0.9%
- remaining activity at 0.01 µM [2, 8]: 73.4%
- remaining activity at 0.1 µM [2, 6]: 2.4 ± 0.12%
- melting point: 202 to 204 °C (dec.)

Compound: NS(=O)(=O)Oc1ccc(-c2cn(-c3ccc(F)cc3)nn2)cc1 [5a]
- remaining activity at 0.01 µM [2, 8]: 60.2 ± 2.7%
- remaining activity at 0.1 µM [2, 6]: 1.5 ± 0.05%

Compound: NS(=O)(=O)Oc1ccc(-c2cn(-c3cccc([N+](=O)[O-])c3)nn2)cc1 [4k, 4-(1-(3-Nitrophenyl)-1H-1,2,3-triazol-4-yl)phenyl Sulfamate]
- remaining activity at 0.5 µM [1]: 28.9 ± 1.44%
- remaining activity at 0.1 µM [2, 6]: 5.9 ± 0.32%
- melting point: 225 to 226 °C (dec.)

Compound: NS(=O)(=O)Oc1ccc(-c2cn(-c3cc(Br)cc(Br)c3)nn2)cc1 [4l, 4-(1-(3,5-Dibromophenyl)-1H-1,2,3-triazol-4-yl)phenyl Sulfamate]
- remaining activity at 0.5 µM [1]: 28.9 ± 1.44%
- remaining activity at 0.1 µM [2, 6]: 8.3 ± 0.4%
- melting point: 228 to 229 °C (dec.)

Compound: NS(=O)(=O)Oc1ccc(-c2cn(-c3ccc(F)c(F)c3)nn2)cc1 [5f]
- remaining activity at 0.1 µM [2, 6]: 3 ± 0.14%

Compound: COc1cc(OC)cc(-n2cc(-c3ccc(OS(N)(=O)=O)cc3)nn2)c1 [4h, 4-(1-(3,5-Dimethoxyphenyl)-1H-1,2,3-triazol-4-yl)phenyl Sulfamate]
- remaining activity at 0.5 µM [1]: 55.1 ± 2.76%
- remaining activity at 0.1 µM [2, 6]: 34.3 ± 1.88%
- melting point: 225 to 227 °C (dec.)

Compound: NS(=O)(=O)Oc1ccc(-c2cn(-c3ccc(F)c(F)c3F)nn2)cc1 [5e]
- HCT [3, 9]: 34,6±1,6%
- HGB [3, 9]: 13,4±0,6 g/dL
- MCH [3, 9]: 18,2±0,4 pg
- MCHC [3, 9]: 38,6±0,5 g/dL
- MCV [3, 9]: 47±1,2 fL
- MPV [3, 9]: 4,9±0,1 fL
- PCT [3, 9]: 0,280±0,04%
- PDW [3, 9]: 25,6±3,8 fL
- RBC [3, 9]: 7,4±0,4 x106/uL
- RDW [3, 9]: 19,2±1,2%
- WBC [3, 9]: 6,1±2,1 x103/uL
- ALT [3, 10]: 31,1±10,7 U/L
- AST [3, 10]: 97,4±24,9 U/L
- creatinine [3, 10]: 5,33±1,21 umol/L
- urea [3, 10]: 7,65±0,54 mmol/L
- body weight of treated tumor-bearing mice (observation) [4]: An increase in body weight was observed
- tumor growth inhibition (TGI) ([4]; 5 days a week, 67NR tumor, N = 9, vs control group): did not show any significant effect
- mice responded to the treatment ([4]; nine mice/group): 6 mice poorly responded to the treatment
- mice with much larger tumor than the mean control volume ([4]; nine mice/group): 2 mice
- mice with tumor volume reduced by approx. 50% compared to the TV control ([4]; nine mice/group): 1 mice
- remaining activity at 0.001 µM [2]: 38.9%
- remaining activity at 0.01 µM [2]: 24.2 ± 1.45%
- remaining activity at 0.1 µM [2]: 1 ± 0.04%
- IC50 ([2]; MCF-7 cells, substrate [3H]E1S, 3 nM): 2.95 ± 0.13 nM
- GRAN [5]: 11,1±1,9%
- HCT [5]: 42,3±1,3%
- HGB [5]: 15,7±0,5 g/dL
- LIMF [5]: 85,6±2,6%
- MCH [5]: 17,1±0,2 pg
- MCHC [5]: 37,2±0,7 g/dL
- MCV [5]: 46±0,5 fL
- MON [5]: 3,3±1%
- PLT [5]: 511±30 10x3/uL
- RBC [5]: 9,2±0,4 10x6/uL
- RDW [5]: 17,6±0,7%
- WBC [5]: 4,0±0,4 10x3/uL

Compound: NS(=O)(=O)Oc1ccc(-c2cn(-c3cccc(C(F)(F)F)c3)nn2)cc1 [5m]
- remaining activity at 0.01 µM [2, 8]: 59.9 ± 3.29%

Compound: NS(=O)(=O)Oc1ccc(-c2cn(-c3ccc(OC(F)(F)F)cc3)nn2)cc1 [5i]
- remaining activity at 0.001 µM [2, 7]: 71.8 ± 4.67%
- remaining activity at 0.01 µM [2, 8]: 9.5 ± 0.48%
- remaining activity at 0.1 µM [2, 6]: 1%
- residual STS activity [%] 100 nM [2, 6]: 1.0%
